# According to the OPERA property sets (Mansouri et al. 2018):
# Settings: not given
SMILES,boiling point,log10 vapour pressure (mmHg),melting point,ready biodegradability,log10 Henry constant (atm·m³/mol),log10 Koc (L/kg),log10 biodegradation half-life (days)
CC(=O)C1C(=O)C=C(C)OC1=O (stereo unspecified),270 °C,-2.9,109 °C,readily biodegradable,,,
c1cncc([C@@H]2CCCCN2)c1,276 °C,,9 °C,,,,
CC1=C(/C=C/C(C)=C/C=C/C(C)=C/C(=O)O)C(C)(C)CCC1,,,181 °C,,,,
CCOC(=O)c1cccc(C(=O)OCC)c1,302 °C,,11.5 °C,,,,
FC(Cl)C(Cl)(Cl)Cl (stereo unspecified),116 °C,,-95.3 °C,,,,
c1ccc(CNCc2ccccc2)cc1,,-3.1,-26 °C,,,,
C=C(C)C(=O)OCC1CO1 (stereo unspecified),,,,readily biodegradable,,,
C[C@@](Cc1ccc(O)c(O)c1)(NN)C(=O)O,,,208 °C,,,,
Cc1ccccc1O,191 °C,-0.524,29.8 °C,readily biodegradable,-5.92,,
COc1ccc(C(C)=O)cc1,258 °C,-2.19,38.5 °C,,,,
CCOc1cc(OCC)cc(OCC)c1,,,43.5 °C,,,,
CC(=O)OCCN(CCC#N)c1ccc(N=Nc2nc3ccc([N+](=O)[O-])cc3s2)cc1,,,167 °C,,,,
C1O[C@@H]1[C@@H]1CO1,144 °C,,3.5 °C,,,,
CCCCCCCCOC(=O)c1ccccc1C(=O)OCCCCCCCC,,-7,,readily biodegradable,,4.38,
O=C1CCC(=O)N1Cl,216 °C,,150 °C,,,,
Cc1ccc(Nc2ccc(Nc3ccc(C)cc3)c3c2C(=O)c2ccccc2C3=O)cc1,,,218 °C,,,,
CC(C)[C@@H](C)/C=C/[C@@H](C)[C@H]1CC[C@H]2C3=CC=C4C[C@@H](O)CC[C@]4(C)[C@H]3CC[C@]12C,,,127 °C,,,,
O=C(O)/C(=C\c1ccccc1)c1ccccc1,,,172 °C,,,,
CCCCC(C)c1ccccc1 (stereo unspecified),208 °C,,,,,,
C=C[Si](OC(C)C)(OC(C)C)OC(C)C,180 °C,,,,,,
CC(O)CCl (stereo unspecified),127 °C,0.69,,,,,
CC(C)OC(=O)CCl,150 °C,0.613,,,,,
Nc1ccc(N)c(N)c1,340 °C,,97.3 °C,,,,
O=C(c1ccccc1)C1CCCCC1,,,56 °C,,,,
CN(C(O)=NC(C)(C)c1ccccc1)c1ccccc1,,,72 °C,,,,
Nc1cc([N+](=O)[O-])cc([N+](=O)[O-])c1,,,163 °C,,,2.55,

SMILES,boiling point,log10 vapour pressure (mmHg),melting point,ready biodegradability,log10 Henry constant (atm·m³/mol),log10 Koc (L/kg),log10 biodegradation half-life (days)
C=C(C)C(=O)OC1CCCCC1,,,,readily biodegradable,,,
CO/N=C(/C(=O)OC)c1ccccc1COc1ccccc1C,,-7.76,99 °C,,,,
CC(C)(CCC(=O)O)C(=O)O,,,84 °C,,,,
CN=NC,1.5 °C,,-78 °C,,,,
CN(C)CCC(O)(c1ccccc1)c1ccccc1Cl (stereo unspecified),,,120 °C,,,,
C=CCCCCCCCCCCCCC,268 °C,-2.34,-2.8 °C,,,,
C[Se]C,55 °C,2.38,,,-2.76,,
O=C[O-].[K+],,,167 °C,,,,
CC(C)COC(=O)C(C)Oc1ccc(Oc2ccc(Cl)cc2)cc1 (stereo unspecified),,,39.5 °C,,,,
CCC(=O)F,44 °C,,,,,,
CC(=O)c1cccc(Cl)c1,244 °C,,,,,,
O=C(O)c1cccc([N+](=O)[O-])c1Cl,,,184 °C,,,,
FCCC(F)(F)F,29.4 °C,,,,,,
O=[N+]([O-])c1ccc(O)cc1,279 °C,-4.01,114 °C,not readily biodegradable,-9.38,2.37,
C=C(C)C(=O)OC(C)C,125 °C,,,,,,
O=C(O)CCCC(=O)O,303 °C,-5.54,,,,,
CCCCOc1ccc(C(=O)O)cc1,,,148 °C,,,,
OCC(F)(F)C(F)(F)C(F)(F)C(F)(F)C(F)(F)C(F)(F)C(F)(F)C(F)F,,,56 °C,,,,
CCCCCCOc1ccc(O)cc1,,,46 °C,,,,
CC(C=O)=Cc1ccccc1,252 °C,-1.82,,,,,
Cc1c(-c2ccccc2)[nH]c2ccccc12,,,91.5 °C,,,,
CC(O)COc1ccccc1 (stereo unspecified),243 °C,,,,,,
Cc1c([N+](=O)[O-])cc2c(c1[N+](=O)[O-])C(C)(C)CC2(C)C,,,132 °C,,,,
CCOC(=O)c1ccc(OCC)cc1,275 °C,,,,,,
C=CC#CCC,85 °C,,,,,,
Cc1ccccc1C(=O)Nc1cccc(OC(C)C)c1,,-6.38,92.5 °C,,,,

SMILES,boiling point,log10 vapour pressure (mmHg),melting point,ready biodegradability,log10 Henry constant (atm·m³/mol),log10 Koc (L/kg),log10 biodegradation half-life (days)
NCCN,117 °C,1.08,11.1 °C,readily biodegradable,-8.76,,
C=C(Cl)Cl,31.6 °C,2.78,-122 °C,not readily biodegradable,-1.58,1.81,
O=C(Cl)c1ccco1,173 °C,,-2 °C,,,,
N#CCI,185 °C,,,,,,
CC(O)CO (stereo unspecified),188 °C,-0.889,-60 °C,readily biodegradable,,0.36,
CC(C)(C)CC(=O)O,190 °C,,6.5 °C,,,,
CCc1cccc(C)n1,160 °C,,,,,,
c1ccc(NNc2ccccc2)cc1,309 °C,-3.36,131 °C,,,2.98,
FC(F)(F)C(F)(F)C(F)(F)C(F)(F)C(F)(F)C(F)(F)C(F)(F)C(F)(F)I,160 °C,,20.8 °C,,,,
C[C@]12CC[C@H]3[C@@H](CCC4=CC(=O)CC[C@@]43C)[C@@H]1CC[C@@H]2C(=O)CO,,,142 °C,,,,
O=[N+]([O-])c1ccsc1,225 °C,,78.5 °C,,,,
CC1CCCCC1C (stereo unspecified),126 °C,1.2,,,,,1.26
N#Cc1c(F)c(F)c(C#N)c(F)c1F,,,198 °C,,,,
Nc1cccc(O)c1,,,123 °C,not readily biodegradable,,,
CCOc1ccc(Cl)cc1Cl,237 °C,,32 °C,,,,
Cc1c(N)cccc1[N+](=O)[O-],305 °C,,92 °C,,,,
O=C(c1ccccc1)c1cccc(C(F)(F)F)c1,,,52.5 °C,,,,
CCCC(O)CC/C=C/C=C/C#CC#C/C=C/CO (stereo unspecified),,,87 °C,,,,
O=C1CC(C(=O)O)CC(=O)C1=C(O)C1CC1 (stereo unspecified),,-7.76,144 °C,,,,
Nc1ccc(C(=O)O)cc1,,,188 °C,readily biodegradable,,2.5,
CN1CCN(C(=O)CC(c2ccc(Cl)cc2)(c2ccc(Cl)cc2)c2ccc(Cl)cc2)CC1,,,214 °C,,,,
COc1ccc(-c2cc(=O)c3c(O)c(OC)c(O)cc3o2)cc1,,,221 °C,,,,
O=C(O)c1c(Br)c(O)c(O)c(O)c1Br,,,150 °C,,,,
c1cn[nH]c1,187 °C,,68 °C,,,,
Cl.N=C(N)N,,,182 °C,,,,
Cc1ccc(/C(=C\CN2CCCC2)c2ccccn2)cc1,,,60 °C,,,,

SMILES,boiling point,log10 vapour pressure (mmHg),melting point,ready biodegradability,log10 Henry constant (atm·m³/mol),log10 Koc (L/kg),log10 biodegradation half-life (days)
CC(C)(C)OC(=O)C(Cl)(Cl)Cl,,,25.5 °C,,,,
CC(=O)O.CCCCCCCCCCCCNC(=N)N,,-6.82,136 °C,,,,
Nc1ccc(N)c2c1C(=O)c1ccccc1C2=O,,-9.7,268 °C,,,,
CC(C)=NNC(N)=S,,,,not readily biodegradable,,,
CCOP(=S)(OCC)SCCSCC,,-4.01,-25 °C,,,3.22,
CC1CCCCC1(C)C (stereo unspecified),145 °C,,-29 °C,,,,
NC(=O)c1ncccc1O,,,195 °C,,,,
CCOC(=O)C(Br)C(C)C (stereo unspecified),186 °C,,,,,,
CNc1ccccn1,200 °C,,15 °C,,,,
CC(=O)CC(C)(C)C,126 °C,,-64 °C,,,,
COc1cc(C(=O)O)ccc1O,,,212 °C,readily biodegradable,,,
CCOC(OCC)c1ccco1,192 °C,,,,,,
NC(N)=S,,-2.55,182 °C,,,0.85,
CCO[SiH](OCC)OCC,134 °C,,,,,,
CCOCCBr,128 °C,,,,,,
Cc1c(N)cc([N+](=O)[O-])cc1[N+](=O)[O-],,,174 °C,,,,
COCCCl,92.5 °C,,,,,,
CCCc1cc(C(N)=S)ccn1,,,137 °C,,,,
O=[N+]([O-])c1ccc2c(c1)Cc1cc([N+](=O)[O-])ccc1-2,,,334 °C,,,,
O=c1[nH]c(=O)n([C@H]2C[C@H](O)[C@@H](CO)O2)cc1F,,,150 °C,,,,
Cc1cc(O)c2ccccc2c1O,,,169 °C,,,,
COC(=O)c1cccc(Br)c1,,,32 °C,,,,
CC(CCN(C)C)N(C)C (stereo unspecified),165 °C,,,,,,
NC(=O)N1c2ccccc2C=Cc2ccccc21,,,190 °C,,,,

# Same assay, conditions: fish
SMILES,log10 BCF,log10 biotransformation half-life (days)
Cc1ccccc1O,1.03,-0.52
O=[N+]([O-])c1ccc(O)cc1,0.71,
C=C(Cl)Cl,1.11,-0.72
Nc1cccc(O)c1,1.34,
Nc1ccc(S(=O)(=O)[O][Na])c2ccccc12,0.78,
CCOP(=S)(OCC)SCCSCC,2.34,0.03
NC(N)=S,0.3,
